Assay results from publication PMC9948168, “Vanillin-Based Indolin-2-one Derivative Bearing a Pyridyl Moiety as a Promising Anti-Breast Cancer Agent via Anti-Estrogenic Activity” (ACS Omega, 2023).

What was measured:
Assay in all cases: NCI-60 one-dose screening
Format in all cases: cell-based
MALME-3M = conditions: Homo sapiens, Melanoma, read-out: GI (%)
Description: (§1) Compounds 5a–c and 6a–o were tested using standard NCI protocols for in vitro activity at the National Cancer Institute (NCI, Bethesda, Maryland, USA), wherein compounds were tested using one single concentration of 10 μM against 60 cell lines of nine different cancer types. […] Excellent activity was observed against a single NSCLC cell line, EKVX, for compounds 5a–c (GIs = 77–86%, Table 1) with no observed activity for indoles with substituted vanillin 6a–o.
(§2) Anticancer activity was tested against 60 cancer cell lines at the NCI, Bethesda, USA. The screening process was done with a single dosage of 10 μM according to NCI protocols published on the NCI website https://dtp.cancer.gov/discovery_development/nci-60/methodology.htm.

OVCAR-8 = conditions: Homo sapiens, OVCAR-8, Ovarian Cancer, read-out: GI (%)
Description: as §1, §2

SNB-75 = conditions: Homo sapiens, SNB-75, CNS Cancer, read-out: GI (%)
Description: as §1, §2

PC-3 = conditions: Homo sapiens, PC-3, Prostate Cancer, read-out: GI (%)
Description: as §1, §2

IGROV1 = conditions: Homo sapiens, IGROV-1, IGROV1, Ovarian Cancer, read-out: GI (%)
Description: as §1, §2

UO-31 = conditions: Homo sapiens, UO-31, Renal Cancer, read-out: GI (%)
Description: as §1, §2

SF-268 = conditions: Homo sapiens, SF-268, CNS Cancer, read-out: GI (%)
Description: as §1, §2

HS 578T = conditions: Homo sapiens, Breast Cancer, read-out: GI (%)
Description: as §1, §2

SF-539 = conditions: Homo sapiens, SF-539, CNS Cancer, read-out: GI (%)
Description: as §1, §2

SK-MEL-5 = conditions: Homo sapiens, SK-MEL-5, Melanoma, read-out: GI (%)
Description: as §1, §2

OVCAR-3 = conditions: Homo sapiens, OVCAR-3, 10 μM; OVCAR-3, Ovarian Cancer; read-out: GI (%)
Description: as §1, §2

SR = conditions: Homo sapiens, Leukemias, read-out: GI (%)
Description: as §1, §2

SK-MEL-28 = conditions: Homo sapiens, SK-MEL-28, Melanoma, read-out: GI (%)
Description: as §1, §2

HCC-2998 = conditions: Homo sapiens, HCC-2998, Colon Cancer, read-out: GI (%)
Description: as §1, §2

DU-145 = conditions: Homo sapiens, DU-145, Prostate Cancer, read-out: GI (%)
Description: as §1, §2

NCI-H23 = conditions: Homo sapiens, NCI-H23, Non-Small Cell Lung Cancer, read-out: GI (%)
Description: as §1, §2

EKVX = conditions: Homo sapiens, Non-Small Cell Lung Cancer, read-out: GI (%)
Description: as §1, §2

NCI/ADR-RES = conditions: Homo sapiens, Ovarian Cancer, read-out: GI (%)
Description: as §1, §2

LOX IMVI = conditions: Homo sapiens, Melanoma, read-out: GI (%)
Description: as §1, §2

SN12C = conditions: Homo sapiens, Renal Cancer, read-out: GI (%)
Description: as §1, §2

HCT-116 = conditions: Homo sapiens, HCT-116, Colon Cancer, read-out: GI (%)
Description: as §1, §2

NCI-H460 = conditions: Homo sapiens, NCI-H460, Non-Small Cell Lung Cancer, read-out: GI (%)
Description: as §1, §2

HOP-62 = conditions: Homo sapiens, HOP-62, Non-Small Cell Lung Cancer, read-out: GI (%)
Description: as §1, §2

KM12 = conditions: Homo sapiens, KM12, Colon Cancer, read-out: GI (%)
Description: as §1, §2

NCI-H522 = conditions: Homo sapiens, NCI-H522, Non-Small Cell Lung Cancer, read-out: GI (%)
Description: as §1, §2

SF-295 = conditions: Homo sapiens, SF-295, CNS Cancer, read-out: GI (%)
Description: as §1, §2

HT29 = conditions: Homo sapiens, HT-29, HT29, Colon Cancer, read-out: GI (%)
Description: as §1, §2

U251 = conditions: Homo sapiens, U-251, U251, CNS Cancer, read-out: GI (%)
Description: as §1, §2

T-47D = conditions: Homo sapiens, T47D, Breast Cancer, read-out: GI (%)
Description: as §1, §2

RPMI-8226 = conditions: Homo sapiens, RPMI-8226, Leukemias, read-out: GI (%)
Description: as §1, §2

HOP-92 = conditions: Homo sapiens, HOP-92, Non-Small Cell Lung Cancer, read-out: GI (%)
Description: as §1, §2

UACC-62 = conditions: Homo sapiens, UACC-62, Melanoma, read-out: GI (%)
Description: as §1, §2

786-0 = conditions: Homo sapiens, 786-0, Renal Cancer, read-out: GI (%)
Description: as §1, §2

MDA-MB-468 = conditions: Homo sapiens, MDA-MB-468, Breast Cancer, read-out: GI (%)
Description: as §1, §2

MDA-MB-231/ATCC = conditions: Homo sapiens, Breast Cancer, read-out: GI (%)
Description: as §1, §2

| Compound | inhibition at 10 µM (MALME-3M) [%] | inhibition at 10 µM (OVCAR-8) [%] | inhibition at 10 µM (SNB-75) [%] | inhibition at 10 µM (PC-3) [%] | inhibition at 10 µM (IGROV1) [%] | inhibition at 10 µM (UO-31) [%] | inhibition at 10 µM (SF-268) [%] | inhibition at 10 µM (HS 578T) [%] | inhibition at 10 µM (SF-539) [%] | inhibition at 10 µM (SK-MEL-5) [%] | inhibition at 10 µM (SR) [%] | inhibition at 10 µM (SK-MEL-28) [%] | inhibition at 10 µM (HCC-2998) [%] | inhibition at 10 µM (DU-145) [%] | inhibition at 10 µM (NCI-H23) [%] | inhibition at 10 µM (EKVX) [%] | inhibition at 10 µM (NCI/ADR-RES) [%] | inhibition at 10 µM (LOX IMVI) [%] | inhibition at 10 µM (SN12C) [%] | inhibition at 10 µM (HCT-116) [%] | other results |
| --- | --- | --- | --- | --- | --- | --- | --- | --- | --- | --- | --- | --- | --- | --- | --- | --- | --- | --- | --- | --- | --- |
| COc1cc(C=C2C(=O)Nc3ccccc32)ccc1O (mixture of isomers) [5a] | 7.51 | 15.5 | 50.6 | 15.6 | 25.6 | 47.7 | 14.7 | 47.9 | 22.6 | 17.3 | 36 | 6.91 | -15 | 11.2 | 16 | 82.6 | 8.73 | 28.6 | 16 | 24.2 | inhibition at 10 µM (OVCAR-3): 19.4%; inhibition at 10 µM (NCI-H460): 8.35%; inhibition at 10 µM (HOP-62): 20.7%; inhibition at 10 µM (KM12): 9.4%; inhibition at 10 µM (NCI-H522): 27.4%; inhibition at 10 µM (SF-295): 7.71%; inhibition at 10 µM (HT29): -1.86%; inhibition at 10 µM (U251): 22.2%; inhibition at 10 µM (T-47D): 31.6%; inhibition at 10 µM (RPMI-8226): 10.8%; inhibition at 10 µM (HOP-92): 35%; inhibition at 10 µM (UACC-62): 34.6%; inhibition at 10 µM (786-0): -0.72%; inhibition at 10 µM (MDA-MB-468): 32.7%; inhibition at 10 µM (MDA-MB-231/ATCC): 33.7% |
| COc1cc(C=C2C(=O)Nc3ccc(Cl)cc32)ccc1O (mixture of isomers) [5b] | 3.24 | 13.8 | 50.1 | 13.8 | 16.2 | 45 | 29.1 | 80.1 | 46.4 | 31.5 | 47.9 | 5.35 | -1.13 | 33.1 | 15.6 | 86.3 | 9.66 | 22.5 | 14.6 | 21.2 | inhibition at 10 µM (OVCAR-3): 25.8%; inhibition at 10 µM (NCI-H460): 7.4%; inhibition at 10 µM (HOP-62): 16.5%; inhibition at 10 µM (KM12): 7.96%; inhibition at 10 µM (NCI-H522): 20.1%; inhibition at 10 µM (SF-295): 8.92%; inhibition at 10 µM (HT29): -0.33%; inhibition at 10 µM (U251): 39.8%; inhibition at 10 µM (T-47D): 40.9%; inhibition at 10 µM (RPMI-8226): 23.6%; inhibition at 10 µM (HOP-92): 34.6%; inhibition at 10 µM (UACC-62): 87.1%; inhibition at 10 µM (786-0): 0.79%; inhibition at 10 µM (MDA-MB-468): 31.3%; inhibition at 10 µM (MDA-MB-231/ATCC): 36.7% |
| COc1cc(C=C2C(=O)Nc3ccccc32)ccc1OCc1ccccc1 (mixture of isomers) [6a] | 8.77 | -0.93 | -0.57 | 5.85 | 5.2 | 25.3 | -1 | -7.03 | 0.76 | -3.35 | 14.6 | -5.94 | -19.5 | 0.43 | -2.84 | 8.21 | 1.52 | 7.61 | 3.52 | 10.3 | inhibition at 10 µM (OVCAR-3): 11%; inhibition at 10 µM (NCI-H460): 20.2%; inhibition at 10 µM (HOP-62): -3.56%; inhibition at 10 µM (KM12): -0.02%; inhibition at 10 µM (NCI-H522): 9.6%; inhibition at 10 µM (SF-295): -1.61%; inhibition at 10 µM (HT29): -2.25%; inhibition at 10 µM (U251): -6.68%; inhibition at 10 µM (T-47D): -13%; inhibition at 10 µM (RPMI-8226): 1%; inhibition at 10 µM (HOP-92): 4.67%; inhibition at 10 µM (UACC-62): 7.55%; inhibition at 10 µM (786-0): -0.73%; inhibition at 10 µM (MDA-MB-468): 8.69%; inhibition at 10 µM (MDA-MB-231/ATCC): 5.3% |
| COc1cc(C=C2C(=O)Nc3ccccc32)ccc1OCc1ccccn1 (mixture of isomers) [6e] | 6.1 | 0.31 | -6.42 | 7.05 | 21 | 30.7 | 6.47 | -1.16 | 15.1 | 11.7 | 21.7 | -7.83 | -16.2 | 1.98 | 12.6 | 22.4 | 4.39 | 3.36 | 2.56 | 3.95 | inhibition at 10 µM (OVCAR-3): 0.9%; inhibition at 10 µM (NCI-H460): 0.59%; inhibition at 10 µM (HOP-62): 7.92%; inhibition at 10 µM (KM12): 3.09%; inhibition at 10 µM (NCI-H522): 5.36%; inhibition at 10 µM (SF-295): 4.7%; inhibition at 10 µM (HT29): 1.19%; inhibition at 10 µM (U251): 9.28%; inhibition at 10 µM (T-47D): 15.8%; inhibition at 10 µM (RPMI-8226): 15.2%; inhibition at 10 µM (HOP-92): 28.1%; inhibition at 10 µM (UACC-62): 11.6%; inhibition at 10 µM (786-0): 1.32%; inhibition at 10 µM (MDA-MB-468): 14.2%; inhibition at 10 µM (MDA-MB-231/ATCC): 18.1% |
| COc1cc(C=C2C(=O)Nc3ccc(Cl)cc32)ccc1OCc1ccc(F)cc1 (mixture of isomers) [6h] | 17.7 | 8.78 | 22.3 | 15.8 | 22.7 | 25.7 | 9.84 | 5.91 | 7.83 | 10.8 | 58.1 | -3.14 | -7.02 | 10.5 | 18.8 | 11.5 | 11.7 | 31.7 | 11.1 | 52.1 | inhibition at 10 µM (NCI-H460): 29.5%; inhibition at 10 µM (HOP-62): 7.95%; inhibition at 10 µM (KM12): -0.4%; inhibition at 10 µM (NCI-H522): 12.1%; inhibition at 10 µM (SF-295): 2.31%; inhibition at 10 µM (HT29): 5.93%; inhibition at 10 µM (U251): 49.3%; inhibition at 10 µM (T-47D): 19.5%; inhibition at 10 µM (RPMI-8226): -0.5%; inhibition at 10 µM (HOP-92): 11.7%; inhibition at 10 µM (UACC-62): 29.8%; inhibition at 10 µM (786-0): -0.02%; inhibition at 10 µM (MDA-MB-468): 12.8%; inhibition at 10 µM (MDA-MB-231/ATCC): 13.1% |
